# From the supplement of paper PMC10307832
# Experiments:
# Assay in all cases: relative viability (nuclei count vs DMSO), 5 days (fraction); higher = more cells survive
# 201T = system: 201T
# Outline: (§1)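 After 5 days of treatment, lung cancer cells in 1536-well plates were fixed and stained in a single step (final 0.05% Triton X-100, 1% formaldehyde, 1 ug/ml Hoechst) and their nuclei counted on 4× images. Treatment had been applied by pin tool the day after seeding as one drug alone or as a fixed anchor-drug dose with five library-drug doses (not always all listed) in √10 steps. Relative viability is the nuclei count of treated wells divided by that of vehicle wells, and values are medians of duplicate plates.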
# A-427 = system: A-427
# Outline: as §1
# COR-L 105 = system: COR-L 105
# Outline: as §1
# COR-L23 = system: COR-L23
# Outline: as §1
# EKVX = system: EKVX
# Outline: as §1
# HARA = system: HARA
# Outline: as §1
# HCC-15 = system: HCC-15
# Outline: as §1
# HCC-44 = system: HCC-44
# Outline: as §1
# HCC-827 = system: HCC-827
# Outline: as §1
# LCLC-103H = system: LCLC-103H
# Outline: as §1
# LK-2 = system: LK-2
# Outline: as §1
# NCI-H1437 = system: NCI-H1437
# Outline: as §1
# NCI-H1666 = system: NCI-H1666
# Outline: as §1
# NCI-H1792 = system: NCI-H1792
# Outline: as §1
# NCI-H1975 = system: NCI-H1975
# Outline: as §1
# NCI-H23 = system: NCI-H23
# Outline: as §1
# NCI-H441 = system: NCI-H441
# Outline: as §1
# NCI-H520 = system: NCI-H520
# Outline: as §1
# NCI-H596 = system: NCI-H596
# Outline: as §1
# NCI-H650 = system: NCI-H650
# Outline: as §1
# NCI-H838 = system: NCI-H838
# Outline: as §1
# SK-MES-1 = system: SK-MES-1
# Outline: as §1
smiles,measurement,setting,value
CC(C)Oc1cc(Nc2nc(N[C@@H](C)c3ccc(F)cn3)ncc2Cl)n[nH]1 [AZ23] + Cc1nc(NC(=O)N2CCC[C@H]2C(N)=O)sc1-c1ccnc(C(C)(C)C(F)(F)F)c1 [Alpelisib] (partner 2 µM),relative viability,201T; first compound 0.01 µM,1.03
same,relative viability,201T; first compound 0.03162 µM,1.09
same,relative viability,201T; first compound 0.3162 µM,1.02
same,relative viability,A-427; first compound 0.01 µM,1.13
same,relative viability,A-427; first compound 0.03162 µM,1.1
same,relative viability,A-427; first compound 0.3162 µM,1.08
same,relative viability,COR-L 105; first compound 0.01 µM,0.676
same,relative viability,COR-L 105; first compound 0.03162 µM,1.33
same,relative viability,COR-L 105; first compound 0.3162 µM,0.813
same,relative viability,COR-L23; first compound 0.01 µM,0.815
same,relative viability,COR-L23; first compound 0.03162 µM,0.921
same,relative viability,COR-L23; first compound 0.3162 µM,0.821
same,relative viability,EKVX; first compound 0.01 µM,0.923
same,relative viability,EKVX; first compound 0.03162 µM,1.07
same,relative viability,EKVX; first compound 0.3162 µM,0.978
same,relative viability,HARA; first compound 0.01 µM,1.18
same,relative viability,HARA; first compound 0.03162 µM,0.847
same,relative viability,HARA; first compound 0.3162 µM,0.774
same,relative viability,HCC-15; first compound 0.01 µM,1.13
same,relative viability,HCC-15; first compound 0.03162 µM,0.857
same,relative viability,HCC-15; first compound 0.3162 µM,0.877
same,relative viability,HCC-44; first compound 0.01 µM,0.858
same,relative viability,HCC-44; first compound 0.03162 µM,0.915
same,relative viability,HCC-44; first compound 0.3162 µM,0.871
same,relative viability,HCC-827; first compound 0.01 µM,1.11
same,relative viability,HCC-827; first compound 0.03162 µM,1.05
same,relative viability,HCC-827; first compound 0.3162 µM,1.07
same,relative viability,LCLC-103H; first compound 0.01 µM,0.953
same,relative viability,LCLC-103H; first compound 0.03162 µM,1.01
same,relative viability,LCLC-103H; first compound 0.3162 µM,0.996
same,relative viability,LK-2; first compound 0.03162 µM,1.26
same,relative viability,LK-2; first compound 0.3162 µM,1.17
same,relative viability,NCI-H1437; first compound 0.01 µM,0.949
same,relative viability,NCI-H1437; first compound 0.03162 µM,1.15
same,relative viability,NCI-H1437; first compound 0.3162 µM,1.06
same,relative viability,NCI-H1666; first compound 0.01 µM,0.869
same,relative viability,NCI-H1666; first compound 0.03162 µM,1.02
same,relative viability,NCI-H1666; first compound 0.3162 µM,0.92
same,relative viability,NCI-H1792; first compound 0.01 µM,1.08
same,relative viability,NCI-H1792; first compound 0.03162 µM,0.831
same,relative viability,NCI-H1792; first compound 0.3162 µM,0.83
same,relative viability,NCI-H1975; first compound 0.01 µM,0.696
same,relative viability,NCI-H1975; first compound 0.03162 µM,0.718
same,relative viability,NCI-H1975; first compound 0.3162 µM,0.705
same,relative viability,NCI-H23; first compound 0.03162 µM,0.749
same,relative viability,NCI-H23; first compound 0.3162 µM,0.573
same,relative viability,NCI-H441; first compound 0.01 µM,1.05
same,relative viability,NCI-H441; first compound 0.03162 µM,0.621
same,relative viability,NCI-H441; first compound 0.3162 µM,0.576
same,relative viability,NCI-H520; first compound 0.01 µM,1.06
same,relative viability,NCI-H520; first compound 0.03162 µM,0.988
same,relative viability,NCI-H520; first compound 0.3162 µM,0.752
same,relative viability,NCI-H596; first compound 0.01 µM,0.51
same,relative viability,NCI-H596; first compound 0.03162 µM,0.528
same,relative viability,NCI-H596; first compound 0.3162 µM,0.418
same,relative viability,NCI-H650; first compound 0.01 µM,1.03
same,relative viability,NCI-H650; first compound 0.03162 µM,1.19
same,relative viability,NCI-H650; first compound 0.3162 µM,1.16
same,relative viability,NCI-H838; first compound 0.01 µM,0.968
same,relative viability,NCI-H838; first compound 0.03162 µM,1.25
same,relative viability,NCI-H838; first compound 0.3162 µM,0.998
same,relative viability,SK-MES-1; first compound 0.01 µM,1.01
same,relative viability,SK-MES-1; first compound 0.03162 µM,0.997
same,relative viability,SK-MES-1; first compound 0.3162 µM,1.06
Clc1ccc(Nc2nnc(Cc3ccncc3)c3ccccc23)cc1 [Vatalanib] + C[C@@H](Oc1cc(-c2cnn(C3CCNCC3)c2)cnc1N)c1c(Cl)ccc(F)c1Cl [Crizotinib] (partner 1 µM),relative viability,201T; first compound 0.04 µM,1
same,relative viability,201T; first compound 0.1265 µM,1.07
same,relative viability,201T; first compound 0.4 µM,1.03
same,relative viability,201T; first compound 1.265 µM,0.991
same,relative viability,201T; first compound 4 µM,1.07
same,relative viability,A-427; first compound 0.04 µM,1.03
same,relative viability,A-427; first compound 0.1265 µM,0.891
same,relative viability,A-427; first compound 0.4 µM,0.994
same,relative viability,A-427; first compound 1.265 µM,0.879
same,relative viability,A-427; first compound 4 µM,0.948
same,relative viability,COR-L 105; first compound 0.04 µM,0.818
same,relative viability,COR-L 105; first compound 0.1265 µM,0.677
same,relative viability,COR-L 105; first compound 0.4 µM,0.938
same,relative viability,COR-L 105; first compound 1.265 µM,0.73
same,relative viability,COR-L 105; first compound 4 µM,0.827
same,relative viability,COR-L23; first compound 0.04 µM,0.7
same,relative viability,COR-L23; first compound 0.1265 µM,0.558
same,relative viability,COR-L23; first compound 0.4 µM,0.668
same,relative viability,COR-L23; first compound 1.265 µM,0.683
same,relative viability,COR-L23; first compound 4 µM,0.632
same,relative viability,EKVX; first compound 0.04 µM,0.993
same,relative viability,EKVX; first compound 0.1265 µM,0.9
same,relative viability,EKVX; first compound 0.4 µM,1.11
same,relative viability,EKVX; first compound 1.265 µM,1.02
same,relative viability,EKVX; first compound 4 µM,0.921
same,relative viability,HARA; first compound 0.04 µM,0.99
same,relative viability,HARA; first compound 0.1265 µM,0.956
same,relative viability,HARA; first compound 0.4 µM,1.01
same,relative viability,HARA; first compound 1.265 µM,1.07
same,relative viability,HARA; first compound 4 µM,0.998
same,relative viability,HCC-15; first compound 0.04 µM,0.9
same,relative viability,HCC-15; first compound 0.1265 µM,0.768
same,relative viability,HCC-15; first compound 0.4 µM,0.79
same,relative viability,HCC-15; first compound 1.265 µM,0.812
same,relative viability,HCC-15; first compound 4 µM,0.841
same,relative viability,HCC-44; first compound 0.04 µM,0.836
same,relative viability,HCC-44; first compound 0.1265 µM,0.842
same,relative viability,HCC-44; first compound 0.4 µM,0.804
same,relative viability,HCC-44; first compound 1.265 µM,0.735
same,relative viability,HCC-44; first compound 4 µM,0.701
same,relative viability,HCC-827; first compound 0.04 µM,0.845
same,relative viability,HCC-827; first compound 0.1265 µM,0.936
same,relative viability,HCC-827; first compound 0.4 µM,0.943
same,relative viability,HCC-827; first compound 1.265 µM,0.894
same,relative viability,HCC-827; first compound 4 µM,0.853
same,relative viability,LCLC-103H; first compound 0.04 µM,1.04
same,relative viability,LCLC-103H; first compound 0.1265 µM,1.04
same,relative viability,LCLC-103H; first compound 0.4 µM,1.15
same,relative viability,LCLC-103H; first compound 1.265 µM,0.999
same,relative viability,LCLC-103H; first compound 4 µM,1.11
same,relative viability,LK-2; first compound 0.04 µM,0.243
same,relative viability,LK-2; first compound 0.1265 µM,0.232
same,relative viability,LK-2; first compound 1.265 µM,0.252
same,relative viability,LK-2; first compound 4 µM,0.233
same,relative viability,NCI-H1437; first compound 0.04 µM,0.978
same,relative viability,NCI-H1437; first compound 0.1265 µM,0.934
same,relative viability,NCI-H1437; first compound 0.4 µM,1.02
same,relative viability,NCI-H1437; first compound 1.265 µM,0.886
same,relative viability,NCI-H1437; first compound 4 µM,0.958
same,relative viability,NCI-H1666; first compound 0.04 µM,0.968
same,relative viability,NCI-H1666; first compound 0.1265 µM,0.985
same,relative viability,NCI-H1666; first compound 0.4 µM,1.06
same,relative viability,NCI-H1666; first compound 1.265 µM,0.889
same,relative viability,NCI-H1666; first compound 4 µM,0.742
same,relative viability,NCI-H1792; first compound 0.04 µM,0.945
same,relative viability,NCI-H1792; first compound 0.1265 µM,0.972
same,relative viability,NCI-H1792; first compound 0.4 µM,0.921
same,relative viability,NCI-H1792; first compound 1.265 µM,0.912
same,relative viability,NCI-H1792; first compound 4 µM,0.98
same,relative viability,NCI-H1975; first compound 0.04 µM,0.946
same,relative viability,NCI-H1975; first compound 0.1265 µM,0.856
same,relative viability,NCI-H1975; first compound 0.4 µM,0.959
same,relative viability,NCI-H1975; first compound 1.265 µM,0.845
same,relative viability,NCI-H1975; first compound 4 µM,0.821
same,relative viability,NCI-H23; first compound 0.04 µM,0.505
same,relative viability,NCI-H23; first compound 0.1265 µM,0.49
same,relative viability,NCI-H23; first compound 0.4 µM,0.491
same,relative viability,NCI-H23; first compound 1.265 µM,0.622
same,relative viability,NCI-H23; first compound 4 µM,0.564
same,relative viability,NCI-H441; first compound 0.04 µM,0.851
same,relative viability,NCI-H441; first compound 0.1265 µM,0.605
same,relative viability,NCI-H441; first compound 0.4 µM,0.72
same,relative viability,NCI-H441; first compound 1.265 µM,0.835
same,relative viability,NCI-H441; first compound 4 µM,0.831
same,relative viability,NCI-H520; first compound 0.04 µM,0.667
same,relative viability,NCI-H520; first compound 0.1265 µM,0.849
same,relative viability,NCI-H520; first compound 0.4 µM,0.824
same,relative viability,NCI-H520; first compound 1.265 µM,0.614
same,relative viability,NCI-H520; first compound 4 µM,0.696
same,relative viability,NCI-H596; first compound 0.04 µM,1.05
same,relative viability,NCI-H596; first compound 0.1265 µM,1.02
same,relative viability,NCI-H596; first compound 0.4 µM,0.884
same,relative viability,NCI-H596; first compound 1.265 µM,0.955
same,relative viability,NCI-H596; first compound 4 µM,1.16
same,relative viability,NCI-H650; first compound 0.04 µM,0.726
same,relative viability,NCI-H650; first compound 0.1265 µM,0.627
same,relative viability,NCI-H650; first compound 1.265 µM,0.641
same,relative viability,NCI-H650; first compound 4 µM,0.606
same,relative viability,NCI-H838; first compound 0.04 µM,0.837
same,relative viability,NCI-H838; first compound 0.1265 µM,0.867
same,relative viability,NCI-H838; first compound 0.4 µM,1.01
same,relative viability,NCI-H838; first compound 1.265 µM,0.73
same,relative viability,NCI-H838; first compound 4 µM,0.79
same,relative viability,SK-MES-1; first compound 0.04 µM,1.01
same,relative viability,SK-MES-1; first compound 0.1265 µM,0.808
same,relative viability,SK-MES-1; first compound 0.4 µM,1.14
same,relative viability,SK-MES-1; first compound 1.265 µM,0.927
same,relative viability,SK-MES-1; first compound 4 µM,0.925
